Data taken from US20140287024A1, “NANOPARTICLE-BASED DELIVERY SYSTEM WITH OXIDIZED PHOSPHOLIPIDS AS TARGETING LIGANDS FOR THE PREVENTION, DIAGNOSIS AND TREATMENT OF ATHEROSCLEROSIS” (priority 2013, published 2014).

Key:
[1] = in vitro; cited from earlier work
[2] = Stability of NLCE, CSNLCE and native EGCG in PBS at different pH and temperatures (HPLC); format: physicochemical
Procedure: EGCG was detected using a high-performance liquid chromatography (HPLC) system (Waters Corporation, Milford, Mass.) with a UV detector and a ZORBAX SB-C18.5 μm, 150*4.6 mm (Agilent,). The mobile phase was composed of 86% water, 12% acetonitrile, 2% ethyl acetate and 0.043% sulfuric acid, and the flow rate was 1 ml/minute. EGCG was detected at 254 nm.
To determine the stability of NLCE, CSNLCE and native EGCG in a pH range 1-7.4, Hydrochloric acid was added into 200 mM phosphate buffered saline to obtain four different pH solutions (pH=1, 3, 5, 7.4). All samples were then dissolved in these solutions to obtain a final EGCG concentration of 100 μM. The solutions were stored in tightly closed vials and incubated in a 37° C. water bath. EGCG concentrations were measured at 0 h, 0.5 h, 1 h, 1.5 h, 2 h, 2.5 hand 3 h.
[…] To simulate the cell growth, stability was evaluated in the cell culture medium RPMI1640 at 37° C. with or without cells, and with or without superoxide dismutases (SOD, 5 U/ml).

[3] = cited from earlier work
[4] = Stability of EGCG in cell culture medium RPMI1640 at 37° C.; format: physicochemical; settings: after 1 h incubation
Procedure: To determine the stability in different temperatures, NLCE, CSNLCE and native EGCG containing 100 μM of EGCG were dissolved in 1×PBS solution (pH 7.4) and incubated at 4° C., 22° C. and 37° C. for 14 d, 19 h and 3 h, respectively. To simulate the cell growth, stability was evaluated in the cell culture medium RPMI1640 at 37° C. with or without cells, and with or without superoxide dismutases (SOD, 5 U/ml).

[5] = system: cuff-induced evolving atherosclerotic lesion; settings: apolipoprotein E null mice, daily intraperitoneal 10 mg/kg body weight, after 21 days treatment; cited from earlier work
[6] = system: THP-1 derived macrophages; assay: EGCG content in THP-1 derived macrophages; format: cell-based, human; settings: 100 μM
Procedure: Human monocytic THP-1 cell line was purchased from the American Type Tissue Culture Collection (ATCC, Rockville, Md.) and grew in a complete medium according to ATCC instructions. The complete medium consisted of RPMI medium supplemented with 10% fetal bovine serum and 0.05 mM of 2-mercaptoethanol. The cells were incubated in a 5% CO2 atmosphere at 37° C. THP-1 cells were differentiated into macrophages by incubating them with the complete medium containing 50 ng/ml PMA for 72 h.
Macrophages derived from THP-1 cells were treated with 100 μM of NLCE, CSNLCE and native EGCG in the complete medium with or without SOD (5 U/ml). After 2 or 4 h incubation at 4° C. or 37° C., cells were washed three times with ice-cold 1×PBS. The attached cells were scraped by 200 μl of 2% ascorbic acid (pH 3) and each well was washed with 200 μl of methanol, which was then combined with 2% ascorbic acid as a mixture. The volume of mixture was measured and internal standard epicatechin was added into the mixture. After one cycle of freezing and thawing, mixtures were sonicated for 2 min in an ice-cold bath using a sonicator (Branson, Inc.). The mixture was centrifuged at 10,000×g for 20 min at 4° C. The clear supernatant solution was collected and injected into the HPLC system. Precipitates were washed with 0.5 ml of deionized water to get rid of acid and dried in the chemical hood overnight. The dried cells were digested by 0.5 N NaOH. Total cellular protein levels were determined by using a bicinchoninic acid (BCA) kit (Pierce, Cramlington). Total cellular uptake was expressed as μg of EGCG per mg of protein.

[7] = system: MCF7 breast cancer cells; assay: Antiproliferative and proapoptotic effects in MCF7 cells; format: cell-based, human; settings: at 10 μM or lower
Text: The chemopreventive actions exerted by green tea are thought to be due to its major polyphenol, (−)-epigallocatechin-3-gallate (EGCG). However, the low level of stability and bioavailability in the body makes administering EGCG at chemopreventive doses unrealistic. EGCG encapsulated chitosan-coated nanoliposomes (CSLIPO-EGCG) were synthesized, and their antiproliferative and proapoptotic effects in MCF7 breast cancer cells were observed.

[8] = system: macrophages and macrophage-derived foam cells; settings: in vitro; cited from earlier work
[9] = biological target: macrophage CD36 (Homo sapiens, UniProt P16671); settings: cited from earlier work
Chain of macrophage CD36 (P16671 whole entry): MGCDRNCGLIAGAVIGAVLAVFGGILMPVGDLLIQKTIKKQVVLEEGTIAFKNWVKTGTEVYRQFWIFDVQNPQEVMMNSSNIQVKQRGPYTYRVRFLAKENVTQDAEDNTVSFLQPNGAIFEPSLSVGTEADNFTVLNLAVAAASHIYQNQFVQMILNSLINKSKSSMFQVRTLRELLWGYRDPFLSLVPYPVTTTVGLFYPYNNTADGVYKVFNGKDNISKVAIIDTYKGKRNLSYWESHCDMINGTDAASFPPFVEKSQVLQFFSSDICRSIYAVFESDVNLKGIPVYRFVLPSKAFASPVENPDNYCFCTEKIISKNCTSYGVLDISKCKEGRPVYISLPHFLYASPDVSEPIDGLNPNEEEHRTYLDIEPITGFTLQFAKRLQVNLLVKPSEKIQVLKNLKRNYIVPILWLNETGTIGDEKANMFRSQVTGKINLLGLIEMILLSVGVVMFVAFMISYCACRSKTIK

Molecule | stability in water and physiological fluid [1] | EGCG left ([2]; 100 μM, 1×PBS pH 7.4, 37° C., after 3 h) | stability in acidic pH ([2]; 100 μM, pH 1.0 to 5.0, 37° C., 3 h) | stability in neutral pH ([2]; 100 μM, pH 7.4, 37° C., after 3 h) | EGCG degraded ([2]; 4° C., after 19 hours, same initial concentration) [%] | EGCG left ([2]; after incubating for 8 h at 23° C.) [%] | order of stability of EGCG at the same pH ([2]; in all conditions) | peak plasma EGCG concentration ([3]; after drinking 2 cups of green tea) [µM] | absolute oral bioavailability ([3]; after drinking tea containing catechins at 10 mg/kg body weight, humans and research animals) | EGCG left [4] [%] | reduction of atherosclerotic lesion size [5] [%] | EGCG content in macrophages ([6]; complete medium containing 5 U/ml of SOD, 2 h incubation at 37° C.) [μg/mg protein] | EGCG content in THP-1 derived macrophages ([6]; complete medium without SOD, 2 h incubation at 37° C.) [μg/mg protein] | EGCG content in macrophages ([6]; in the presence of SOD, after 4 h) [μg/mg protein] | antiproliferative and proapoptotic effectiveness [7] | apoptosis of macrophages and macrophage-derived foam cells [8] | expression and production of inflammatory factors [8] | CD36 binding affinity conferred, relative potency [9] | binding affinity to macrophage CD36 [9]
O=C(O[C@@H]1Cc2c(O)cc(O)cc2O[C@@H]1c1cc(O)c(O)c(O)c1)c1cc(O)c(O)c(O)c1 [EGCG, (−)-epigallocatechin-3-gallate] | unstable | completely degraded | stable | not stable and could not be detected | 91 | 1.52 | CSNLCE>NLCE>native EGCG | 0.15 | about 0.1% | 3.7 | 55 | 0.098 | 0.031 | 0.109 | doesn't have any beneficial effects | induce apoptosis | inhibit | – | –
1-Palmitoyl-2-(11-carboxy-9-oxoundec-10-enoyl)-sn-glycero-3-phosphatidylcholine [KDdiA-PC] | – | – | – | – | – | – | – | – | – | – | – | – | – | – | – | – | – | more potently than any hydroperoxy phospholipid species | high binding affinity
5-keto-6-octendioic acid esters of 2-lyso-PC [KOdiA-PC] | – | – | – | – | – | – | – | – | – | – | – | – | – | – | – | – | – | – | high binding affinity
